The target in one assay is T1, 5-HT1A receptors (Rattus norvegicus, UniProt P19327).
T1 sequence (P19327 1-422): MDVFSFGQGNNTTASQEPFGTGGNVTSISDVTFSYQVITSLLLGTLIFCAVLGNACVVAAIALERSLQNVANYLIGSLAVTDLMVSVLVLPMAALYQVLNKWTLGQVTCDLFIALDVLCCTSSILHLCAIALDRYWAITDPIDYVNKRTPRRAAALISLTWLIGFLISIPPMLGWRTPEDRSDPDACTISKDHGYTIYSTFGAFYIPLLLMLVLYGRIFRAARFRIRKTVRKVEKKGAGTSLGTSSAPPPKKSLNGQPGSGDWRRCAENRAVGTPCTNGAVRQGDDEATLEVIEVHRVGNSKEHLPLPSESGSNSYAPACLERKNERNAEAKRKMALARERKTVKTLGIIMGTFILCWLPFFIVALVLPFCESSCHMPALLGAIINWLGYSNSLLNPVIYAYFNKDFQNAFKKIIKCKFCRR
In words: inhibition of [3H]8-OH-DPAT binding to 5-HT1A receptors in vitro. Set-up: species or system rat (male Sprague-Dawley, hippocampal tissue). Conditions: rat hippocampus, [3H]8-OH-DPAT 2 nM, 25° C., 30 min.

The target of the next assay is T2, α2A-adrenoceptors (Homo sapiens, UniProt P08913).
T2 construct: Human cerebral cortex obtained at post-mortem; from tissue; host or cells: human cerebral cortex, post-mortem
T2 sequence (P08913 1-465): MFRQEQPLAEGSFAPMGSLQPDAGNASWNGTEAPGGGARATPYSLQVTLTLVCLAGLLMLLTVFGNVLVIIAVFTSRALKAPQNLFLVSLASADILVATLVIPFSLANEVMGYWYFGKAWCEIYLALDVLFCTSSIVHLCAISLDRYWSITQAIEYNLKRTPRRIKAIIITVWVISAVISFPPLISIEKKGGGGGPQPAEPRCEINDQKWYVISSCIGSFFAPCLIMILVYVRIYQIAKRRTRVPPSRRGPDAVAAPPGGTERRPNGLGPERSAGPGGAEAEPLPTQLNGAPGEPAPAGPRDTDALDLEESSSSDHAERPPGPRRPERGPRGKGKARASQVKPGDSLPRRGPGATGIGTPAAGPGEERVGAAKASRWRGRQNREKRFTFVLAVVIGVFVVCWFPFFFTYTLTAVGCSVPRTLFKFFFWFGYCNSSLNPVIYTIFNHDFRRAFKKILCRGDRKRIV
In words: inhibition of tritiated RX 821002 binding to α2A-adrenoceptors in vitro. Also noted: species or system human (cerebral cortex post-mortem). Conditions: 10^-6 M, human cerebral cortex, [3H]RX 821002; read-out: % displacement at 10^-6 M, α2A. As to the method:
Human cerebral cortex obtained at post-mortem was homogenised in ice-cold 0.25M sucrose (1:30 w/v) and centrifuged at 1,000 g at 4° C. for 12 minutes. The supernatant was stored on ice and the pellet was rehomogenised in 0.25M sucrose (1:15 w/v) and centrifuged at 850 g at 4° C. for 12 minutes. Combined supernatants were diluted with 5 mM Tris-HCl (pH 7.5) containing 5 mM ethylenediamine tetraacetic acid (EDTA), readjusted to pH 7.5 (at 25° C.) with 1M sodium hydroxide to 1:80 w/v, and centrifuged at 11,000 g at 4° C. for 10 minutes. The resulting pellet was resuspended in 50 mM Tris-HCl (pH 7.5) containing 5.68 mM L-ascorbic acid and 0.5 mM EDTA, readjusted to pH 7.5 (at 25° C.) with 1M sodium hydroxide to 1:80 w/v, and centrifuged at 11,000 g for 10 minutes. The pellet was stored at -80° C. On the day of the assay the pellet was thawed, resuspended in 50 mM Tris-HCl (pH 7.5) containing 5.68 mM L-ascorbic acid and 5 mM EDTA to 1:80 w/v and centrifuged at 11,000 g for 10 minutes. The final pellet was resuspended in 50 mM Tris-HCl (pH 7.5) containing 5.68 mM L-ascorbic acid and 5 mM EDTA (equivalent to 25 mg wet weight of tissue/ml).
Aliquots (400 μl; equivalent to 10 mg wet weight of tissue/tube) of this suspension were added to tubes containing the ligand (50 μl; 0.2 nM) and distilled water (50 μl; total binding) or phentolamine (50 μl; 50 μM; non-specific binding) or test compound (50 μl; at a single concentration of 10^-6 M or at 10 concentrations ranging from 10^-11 -10^-3 M). The ligand was tritiated RX 821002 (2-(2-methoxy-1,4-[6,7(n)-^3 H]benzodioxan-2-yl)-2-imidazoline) and the mixture was incubated at 0° C. for 75 minutes before the incubation was terminated by rapid filtration.
The filters were washed with ice-cold Tris-HCl buffer and dried. The filters were punched out into vials, scintillation fluid added and radioactivity determined by liquid scintillation counting. The percentage displacement of specific binding of the tritiated ligand was calculated for the single concentration (10^-6 M) of test compound. Displacement curves were then produced for those compounds which displaced ≥50% of specific binding of the tritiated ligand at 10^-6 M using a range of concentrations of the compound. The concentration which gave 50% inhibition of specific binding (IC50) was obtained from the curve. The inhibition coefficient Ki was then calculated using the formula [formula] in which [ligand] is the concentration of the tritiated ligand used and KD is the equilibrium dissociation constant for the ligand.

A further assay concerns the target T3, α2D-adrenoceptors (Rattus norvegicus, UniProt P22909).
T3 sequence (P22909 1-465): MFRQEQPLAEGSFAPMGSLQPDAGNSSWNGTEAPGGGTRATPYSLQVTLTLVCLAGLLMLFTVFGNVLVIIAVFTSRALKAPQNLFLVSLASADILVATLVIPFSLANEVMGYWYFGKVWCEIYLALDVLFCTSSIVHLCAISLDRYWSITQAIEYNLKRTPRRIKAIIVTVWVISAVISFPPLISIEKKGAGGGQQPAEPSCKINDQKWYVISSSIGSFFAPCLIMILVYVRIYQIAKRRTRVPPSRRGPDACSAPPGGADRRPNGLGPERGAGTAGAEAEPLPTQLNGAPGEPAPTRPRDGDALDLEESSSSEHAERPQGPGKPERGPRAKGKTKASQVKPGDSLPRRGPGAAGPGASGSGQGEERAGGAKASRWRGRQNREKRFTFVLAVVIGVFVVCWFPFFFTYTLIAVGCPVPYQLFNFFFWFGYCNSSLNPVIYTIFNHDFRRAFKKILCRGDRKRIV
Briefly: inhibition of tritiated idazoxan binding to α2D-adrenoceptors in vitro. Also noted: species or system rat (male Charles River CD, frontal cortical tissue). As to conditions: rat frontal cortex; for Ki: [3H]idazoxan 1 nM, 0° C., 75 min; for inhibition at 1 µM: 10^-6 M, [3H]idazoxan, read-out: % displacement at 10^-6 M, α2D.

The target in a further assay is α1-adrenoceptors. In words: inhibition of 7-methoxy-[3H]prazosin binding to α1-adrenoceptors in vitro. Set-up: species or system rat (male Charles River CD, whole cortical tissue). As to conditions: rat whole cortex, 7-methoxy-[3H]prazosin 0.1 nM, 30° C., 30 min. The gist of the method:
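Male CD rat cortical membranes in 50 mM Tris-HCl pH 7.6 were incubated 30 min at 30 °C with 7-methoxy-[3H]prazosin (0.1 nM as added), with 5 μM phentolamine (as added) defining non-specific binding, then filtered and counted. Compounds were tested at 10^-6 M for % displacement or at 10^-11–10^-3 M for IC50, and Ki was derived from IC50, ligand concentration and KD.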

In the next assay the target is D2 dopamine receptors (Rattus norvegicus, UniProt P61169). Briefly: inhibition of tritiated (S)-sulpiride binding to D2 dopamine receptors in vitro. Set-up: species or system rat (male Charles River CD, striatal tissue). Conditions: rat striatum, tritiated (S)-sulpiride 1 nM, 4° C., 40 min.
Sequence of D2 dopamine receptors (P61169 whole entry): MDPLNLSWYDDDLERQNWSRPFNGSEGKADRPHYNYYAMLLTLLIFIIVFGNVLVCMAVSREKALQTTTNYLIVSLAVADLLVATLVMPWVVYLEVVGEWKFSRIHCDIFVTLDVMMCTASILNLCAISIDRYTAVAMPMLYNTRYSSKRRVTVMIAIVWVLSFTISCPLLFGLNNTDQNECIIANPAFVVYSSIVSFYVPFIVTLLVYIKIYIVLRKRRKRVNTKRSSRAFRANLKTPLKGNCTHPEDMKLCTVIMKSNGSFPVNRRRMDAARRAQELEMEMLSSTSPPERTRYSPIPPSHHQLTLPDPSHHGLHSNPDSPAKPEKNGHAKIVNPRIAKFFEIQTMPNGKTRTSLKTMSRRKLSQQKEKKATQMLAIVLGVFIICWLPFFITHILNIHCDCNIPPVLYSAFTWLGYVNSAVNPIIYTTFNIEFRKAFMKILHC

The term Ki denotes a measure of affinity in units of concentration, obtained from inhibition or displacement. Lower therefore signals tighter binding. Turning to `Cn1nc(-c2ccccc2)c(CN2CCN(c3cccc4c3OCCO4)CC2)c1N` [Example 13, 5-Amino-4-[4-(1,4-benzodioxan-5-yl)piperazin-1-ylmethyl]-1-methyl-3-phenylpyrazole], the Ki on 5-HT1A receptors is 21 nM; on α2D-adrenoceptors, 156 nM; at α1-adrenoceptors, 57 nM; at D2 dopamine receptors, over 500 nM. Besides, the inhibition at 1 µM at α2A-adrenoceptors was found to be 95%.

`Cc1ccccc1N1CCN(CC2(C)N=C(c3ccccc3)NC2=O)CC1` (stereo not drawn) [Example 43, 4-Methyl-4-[4-(2-methylphenyl)piperazin-1-ylmethyl]-2-phenyl-2-imidazolin-5-one]: the Ki on 5-HT1A receptors is 276 nM; on α2D-adrenoceptors it was 33 nM; at α1-adrenoceptors it was over 500 nM; at D2 dopamine receptors it was over 500 nM. Besides, on α2A-adrenoceptors, the inhibition at 1 µM came to 93%.

For the molecule `CC(C)Oc1ccccc1N1CCN(Cc2c(C3CCC3)nn(C)c2N)CC1` [Example 28, 5-Amino-3-cyclobutyl-4-[4-(2-isopropoxyphenyl)piperazin-1-ylmethyl]-1-methylpyrazole], the figures for the Ki at 5-HT1A receptors, on α1-adrenoceptors and at D2 dopamine receptors were 40 nM, 27 nM and 25 nM, respectively. Also, the inhibition at 1 µM on α2A-adrenoceptors amounted to 99%; on α2D-adrenoceptors, 93%.

For `COc1ccccc1N1CCN(CC2(C)N=C(c3cccnc3)NC2=O)CC1` (stereo not drawn) [Example 36, 4-[4-(2-methoxyphenyl)piperazin-1-ylmethyl]-4-methyl-2-(3-pyridyl)-2-imidazolin-5-one], the Ki on 5-HT1A receptors came out at 134 nM; at α2D-adrenoceptors, 127 nM; on α1-adrenoceptors, 396 nM; at D2 dopamine receptors it was 297 nM. On α2A-adrenoceptors, the inhibition at 1 µM was 66%.

With `Nc1c(CN2CCN(c3cccc4c3OCCO4)CC2)c(C2CC2)nn1-c1ccccn1` [Example 16, 5-Amino-4-[4-(1,4-benzodioxan-5-yl)piperazin-1-ylmethyl]-3-cyclopropyl-1-(2-pyridyl)pyrazole], the Ki on 5-HT1A receptors is 4.1 nM; on α2D-adrenoceptors, 9.7 nM; on α1-adrenoceptors it was 35 nM; at D2 dopamine receptors, 85 nM. On α2A-adrenoceptors, the inhibition at 1 µM was determined as 100%.

For the molecule `Nc1c(CN2CCN(c3cccc4c3OCCO4)CC2)c(C2CC2)nn1-c1ccc(Cl)cc1` [Example 20, 5-Amino-4-[4-(1,4-benzodioxan-5-yl)piperazin-1-ylmethyl]-1-(4-chlorophenyl)-3-cyclopropylpyrazole], the Ki at 5-HT1A receptors came to 61 nM; on α2D-adrenoceptors it was 15 nM; on α1-adrenoceptors it was 19 nM; on D2 dopamine receptors, 445 nM. In addition, the inhibition at 1 µM at α2A-adrenoceptors is 89%.

Regarding `CC(C)(C)c1nn(-c2ccccc2)c(N)c1CN1CCN(c2cccc3c2OCCO3)CC1` [Example 22, 5-Amino-4-[4-(1,4-benzodioxan-5-yl)piperazin-1-ylmethyl]-3-tert-butyl-1-phenylpyrazole], the Ki at 5-HT1A receptors was 29 nM; on α2D-adrenoceptors, over 500 nM; at α1-adrenoceptors it was over 500 nM; at D2 dopamine receptors, over 500 nM. At α2A-adrenoceptors, the inhibition at 1 µM was 66%.

With `Nc1c(CN2CCN(c3cccc4c3OCCO4)CC2)c(C2CC2)nn1-c1ccncc1` [Example 34, 5-Amino-4-[4-(1,4-benzodioxan-5-yl)piperazin-1-ylmethyl]-3-cyclopropyl-1-(4-pyridyl)pyrazole], the Ki at 5-HT1A receptors worked out at 118 nM; on α1-adrenoceptors, 102 nM; on D2 dopamine receptors it was 88 nM. Moreover, the results for the inhibition at 1 µM on α2A-adrenoceptors and on α2D-adrenoceptors were 96% and 87%, respectively.

Consider `CC(C)Oc1ccccc1N1CCN(Cc2c(C3CC3)nn(-c3ccccc3)c2N)CC1` [Example 23, 5-Amino-3-cyclopropyl-4-[4-(2-isopropoxyphenyl)piperazin-1-ylmethyl]-1-phenylpyrazole], for which the Ki at 5-HT1A receptors is 22 nM; on α2D-adrenoceptors, 1.7 nM; at α1-adrenoceptors it was 17 nM; at D2 dopamine receptors, 109 nM. Also, on α2A-adrenoceptors, the inhibition at 1 µM came out at 100%.

These data come from patent US6114334A, “Piperazine derivatives as therapeutic agents” (Knoll Aktiengesellschaft, priority 1995, dated 2000).
